Measurements as given in patent US8791132B2, “Compounds and methods for treatment of hypertension” (Medivation Technologies, Inc., priority 2011, dated 2014).
“And” between values parts separate entries of the source, which are not always exact repeats. Equal values may be shown once.

Key:
[1] = molecular target: T1, human recombinant adrenergic α2B receptor (Homo sapiens, UniProt P18089); assay: Radioligand binding, adrenergic α2B ([3H]Rauwolscine); details: for Percentage inhibition of ligand binding, Adrenergic α2B (0.1 μM): compound at 0.1 μM; for inhibition at 0.1 µM: read-out: Percentage inhibition of ligand binding, Adrenergic α2B (0.1 μM), compound at 0.1 μM
T1 construct: expressed in transfected cells; host or cells: CHO-K1
T1 sequence (P18089 1-450): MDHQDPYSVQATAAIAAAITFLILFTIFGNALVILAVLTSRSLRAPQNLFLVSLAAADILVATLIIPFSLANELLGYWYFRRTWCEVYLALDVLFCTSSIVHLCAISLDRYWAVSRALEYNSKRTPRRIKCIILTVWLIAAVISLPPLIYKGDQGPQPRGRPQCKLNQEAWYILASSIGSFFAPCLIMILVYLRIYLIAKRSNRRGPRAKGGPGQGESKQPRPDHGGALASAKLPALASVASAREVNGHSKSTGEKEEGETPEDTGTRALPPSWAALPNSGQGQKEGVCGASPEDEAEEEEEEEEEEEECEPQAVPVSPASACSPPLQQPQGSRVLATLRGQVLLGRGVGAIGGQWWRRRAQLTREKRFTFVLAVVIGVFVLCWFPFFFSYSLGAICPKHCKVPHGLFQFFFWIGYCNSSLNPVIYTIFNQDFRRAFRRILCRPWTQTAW
Outline: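 Membranes from CHO-K1 cells expressing human recombinant α2B, in 50 mM Tris-HCl pH 7.4, 12.5 mM MgCl2, 1 mM EDTA, 0.2% BSA, incubated with compound and 2.5 nM [3H]Rauwolscine, 60 min, 25 °C.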

[2] = molecular target: T2, human recombinant adrenergic α2A receptor (Homo sapiens, UniProt P08913); assay: Radioligand binding, adrenergic α2A ([3H]MK-912); details: for Percentage inhibition of ligand binding, Adrenergic α2A (0.1 μM): compound at 0.1 μM; for inhibition at 0.1 µM: read-out: Percentage inhibition of ligand binding, Adrenergic α2A (0.1 μM), compound at 0.1 μM
T2 construct: expressed in transfected cells; host or cells: insect Sf9 cells
T2 sequence (P08913 1-465): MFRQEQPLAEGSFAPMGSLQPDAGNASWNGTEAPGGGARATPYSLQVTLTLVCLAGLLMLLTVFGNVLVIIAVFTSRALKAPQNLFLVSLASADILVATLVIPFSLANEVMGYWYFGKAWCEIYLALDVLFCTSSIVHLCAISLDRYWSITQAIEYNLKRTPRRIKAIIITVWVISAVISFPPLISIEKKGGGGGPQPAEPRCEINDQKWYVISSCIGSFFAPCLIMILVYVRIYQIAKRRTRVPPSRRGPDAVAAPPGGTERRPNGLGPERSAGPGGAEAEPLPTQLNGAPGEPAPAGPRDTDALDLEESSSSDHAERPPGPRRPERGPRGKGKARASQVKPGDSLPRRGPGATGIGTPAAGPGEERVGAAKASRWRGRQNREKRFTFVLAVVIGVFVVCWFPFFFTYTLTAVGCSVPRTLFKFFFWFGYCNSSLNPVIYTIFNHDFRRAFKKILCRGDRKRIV
Outline: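 In 50 mM Tris-HCl (pH 7.4) containing 12.5 mM MgCl2 and 2 mM EDTA, Sf9-expressed receptor was exposed to test compound plus 1 nM [3H]MK-912 at 25 °C for 60 min. Specific binding, corrected using 10 μM WB-4101, was quantified by filtration and counting and expressed as percent inhibition.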

[3] = molecular target: T3, rat adrenergic α1B receptor (Rattus norvegicus, UniProt P15823); assay: Radioligand binding, adrenergic α1B ([3H]Prazosin); details: [3H]Prazosin, repeat datapoints each shown; for inhibition at 0.1 µM: read-out: Percentage inhibition of ligand binding, Adrenergic α1B (0.1 μM), compound at 0.1 μM; for Percentage inhibition of ligand binding, Adrenergic α1B (0.1 μM): compound at 0.1 μM
T3 construct: rat adrenergic α1B receptor obtained from Wistar Rat liver; from tissue; host or cells: Wistar rat liver
T3 sequence (P15823 1-515): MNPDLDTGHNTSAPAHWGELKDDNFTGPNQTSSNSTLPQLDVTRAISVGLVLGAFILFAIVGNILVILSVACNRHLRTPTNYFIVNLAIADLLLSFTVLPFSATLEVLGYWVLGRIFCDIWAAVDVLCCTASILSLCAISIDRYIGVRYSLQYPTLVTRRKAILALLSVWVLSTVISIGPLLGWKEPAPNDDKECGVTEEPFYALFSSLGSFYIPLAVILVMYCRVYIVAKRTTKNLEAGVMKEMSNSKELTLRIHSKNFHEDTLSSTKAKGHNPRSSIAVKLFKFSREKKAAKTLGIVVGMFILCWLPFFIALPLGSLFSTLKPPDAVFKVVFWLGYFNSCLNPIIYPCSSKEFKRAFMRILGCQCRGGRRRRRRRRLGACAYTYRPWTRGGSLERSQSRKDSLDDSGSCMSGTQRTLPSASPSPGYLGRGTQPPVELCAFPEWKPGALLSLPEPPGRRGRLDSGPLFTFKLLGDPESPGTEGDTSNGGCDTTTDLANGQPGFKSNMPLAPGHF
Outline: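 Filter binding with Wistar rat liver α1B preparation: test compound plus 0.25 nM [3H]prazosin, 1 h at 25° C in modified Tris-HCl buffer pH 7.4.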

[4] = [3H]Rauwolscine, repeat datapoints each shown
[5] = [3H]MK-912, repeat datapoints each shown

SMILES | Percentage inhibition of ligand binding, Adrenergic α2B (0.1 μM) [1, 4] [%] | Ki ([1]; read-out: Ki α2B) [nM] | inhibition at 0.03 µM ([1]; read-out: Percentage inhibition of ligand binding, Adrenergic α2B (0.03 μM), compound at 0.03 μM, [3H]Rauwolscine, repeat datapoints each shown) [%] | inhibition at 0.1 µM [1, 4] [%] | Ki [2] [nM] | Percentage inhibition of ligand binding, Adrenergic α2A (0.1 μM) [2, 5] | inhibition at 0.03 µM ([2]; read-out: Percentage inhibition of ligand binding, Adrenergic α2A (0.03 μM), compound at 0.03 μM, [3H]MK-912, repeat datapoints each shown) [%] | Percentage inhibition of ligand binding, Adrenergic α1B (0.03 μM) ([3]; compound at 0.03 μM, 0.03 µM) [%] | inhibition at 0.03 µM ([3]; read-out: Percentage inhibition of ligand binding, Adrenergic α1B (0.03 μM), compound at 0.03 μM) [%] | inhibition at 0.1 µM [3] [%] | inhibition at 0.1 µM [2, 5] [%] | Percentage inhibition of ligand binding, Adrenergic α1B (0.1 μM) [3] [%]
CN1CCc2c(c3cccc(Cl)c3n2CCc2ccccc2)C1 [compound 216] | 106 | 0.95 | 98 | 103 | 9.59 | 76% and 98% | 58 | 47 | 34 | 65 |  | 
COc1ccc(/C(C)=C/n2c3c(c4cc(Cl)ccc42)CCN(C)CC3)cc1F [compound 240] | 97 |  |  | 83 |  | 87% |  |  |  | 74 | 82 | 75
COc1ccc(/C(C)=C/n2c3c(c4cc(C)ccc42)CCN(C)CC3)cc1F [compound 241] | 93 |  |  | 91 |  | 78% |  |  |  | 81 | 75 | 82
